The target in assay [1] is T1, recombinant human NK3 receptor (Homo sapiens, UniProt P29371).
T1 construct: expressed in transfected cells; host or cells: HEK293 cells, transient expression; membrane preparation
T1 sequence (P29371 1-465): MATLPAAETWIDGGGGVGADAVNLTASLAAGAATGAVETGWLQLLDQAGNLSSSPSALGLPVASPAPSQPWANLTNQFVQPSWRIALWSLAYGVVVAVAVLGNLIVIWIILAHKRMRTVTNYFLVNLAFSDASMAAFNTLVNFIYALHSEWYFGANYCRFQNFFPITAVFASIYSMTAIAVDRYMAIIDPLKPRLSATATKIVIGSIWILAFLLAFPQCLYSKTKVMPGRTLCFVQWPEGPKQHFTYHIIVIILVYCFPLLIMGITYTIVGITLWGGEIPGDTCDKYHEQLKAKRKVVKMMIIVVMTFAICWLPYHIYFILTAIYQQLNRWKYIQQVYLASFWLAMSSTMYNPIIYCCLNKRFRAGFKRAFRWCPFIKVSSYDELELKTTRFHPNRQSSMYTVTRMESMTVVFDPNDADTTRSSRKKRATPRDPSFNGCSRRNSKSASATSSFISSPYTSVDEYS
As to the kind of experiment: [3H]SR142801 competition binding assay. In a few lines: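 Membranes from HEK293 cells transiently expressing the receptor (5 μg protein/well) incubated 75 min at RT with [3H]SR142801 at its KD and 10 compound concentrations (0.0003-10 μM), in pH 7.4 Tris buffer with MnCl2, phosphoramidon and BSA. Nonspecific binding defined with 10 μM SB222200; bound radioactivity counted after filtration. Ki from IC50 via Cheng-Prusoff; duplicates.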

Assay [2] deals with symptoms of schizophrenia. Conditions: phase II trial, cited from earlier work.
[3] abbreviates: [3H]SR142801, membranes of HEK293 cells transiently expressing recombinant human NK3 receptor, read-out: hNK3 Ki.
[4] abbreviates: representative compounds, [3H]SR142801, HEK293 membranes, human NK3 receptor, read-out: Ki NK3 h.

For orientation: Ki means the dissociation constant of the complex between target and ligand, obtained from inhibition or displacement.

The structures appear in SMILES notation. Like-named read-outs stand apart in the source and are kept apart here.

As for `CC(NC(=O)C(C)(CCN1CCC(N2CCCC2=O)CC1)c1ccc(Cl)c(Cl)c1)c1ccc(F)c(C(F)(F)F)c1` (stereo not drawn) [Example 125, 2-(3,4-Dichloro-phenyl)-N-[1-(4-fluoro-3-trifluoromethyl-phenyl)-ethyl]-2-methyl-4-[4-(2-oxo-pyrrolidin-1-yl)-piperidin-1-yl]-butyramide], the inhibitory constant (Ki) in assay [1] (setting [3]) is 25.4 nM.
As to `CC(c1ccc(F)c(C(F)(F)F)c1)N(C)C(=O)C(C)(CCN1CCC(N2CCCC2=O)CC1)c1ccc(Cl)c(Cl)c1` (stereo not drawn) [Example 126, 2-(3,4-Dichloro-phenyl)-N-[1-(4-fluoro-3-trifluoromethyl-phenyl)-ethyl]-2,N-dimethyl-4-[4-(2-oxo-pyrrolidin-1-yl)-piperidin-1-yl]-butyramide], in assay [1] (setting [3]), the Ki is 30.3 nM.
On to `CC[C@H](NC(=O)C(C)(CCN1CCC(N2CCCC2=O)CC1)c1ccc(Cl)c(Cl)c1)c1ccccc1` (stereo partly drawn) [Example 127, 2-(3,4-Dichloro-phenyl)-2-methyl-4-[4-(2-oxo-pyrrolidin-1-yl)-piperidin-1-yl]-N-((S)-1-phenyl-propyl)-butyramide], for which the Ki in assay [1] (setting [3]) and in assay [1] (setting [4]) was 5.2 nM each time.
Turning to `CC[C@@H](NC(=O)C(C)(CCN1CCC(N2CCCC2=O)CC1)c1ccc(Cl)c(Cl)c1)c1ccccc1` (stereo partly drawn) [Example 128, 2-(3,4-Dichloro-phenyl)-2-methyl-4-[4-(2-oxo-pyrrolidin-1-yl)-piperidin-1-yl]-N-((R)-1-phenyl-propyl)-butyramide], the Ki in assay [1] (setting [3]) worked out at 90.2 nM.
Turning to `CC(CCN1CCC(N2CCCC2=O)CC1)(C(=O)NCc1ccc(F)c(C(F)(F)F)c1)c1ccc(Cl)c(Cl)c1` (stereo not drawn) [Example 131, 2-(3,4-Dichloro-phenyl)-N-(4-fluoro-3-trifluoromethyl-benzyl)-2-methyl-4-[4-(2-oxo-pyrrolidin-1-yl)-piperidin-1-yl]-butyramide], the inhibitory constant (Ki) in assay [1] (setting [3]) and in assay [1] (setting [4]) was 3.4 nM throughout.
For the compound `CC(=O)N(C)C1CCN(CCC(C)(C(=O)NC(C)c2ccc(F)c(C(F)(F)F)c2)c2ccc(Cl)c(Cl)c2)CC1` (stereo not drawn) [Example 132, 4-[4-(Acetyl-methyl-amino)-piperidin-1-yl]-2-(3,4-dichloro-phenyl)-N-[1-(4-fluoro-3-trifluoromethyl-phenyl)-ethyl]-2-methyl-butyramide], in assay [1] (setting [3]), the inhibition constant (Ki) came to 46.2 nM.
The same measure, in the same setting: next, `CC(=O)N(C)C1CCN(CCC(C)(C(=O)N[C@H](CO)c2ccccc2)c2ccc(Cl)c(Cl)c2)CC1` (stereo partly drawn) [Example 133, 4-[4-(Acetyl-methyl-amino)-piperidin-1-yl]-2-(3,4-dichloro-phenyl)-N-((S)-2-hydroxy-1-phenyl-ethyl)-2-methyl-butyramide]: 526 nM; `CC(=O)N(C)C1CCN(CCC(C)(C(=O)N[C@@H](CO)c2ccccc2)c2ccc(Cl)c(Cl)c2)CC1` (stereo partly drawn) [Example 134, 4-[4-(Acetyl-methyl-amino)-piperidin-1-yl]-2-(3,4-dichloro-phenyl)-N-((R)-2-hydroxy-1-phenyl-ethyl)-2-methyl-butyramide]: 35.6 nM; `CC(=O)N(C)C1CCN(CCC(C)(C(=O)NC(c2ccc(F)cc2)C(F)(F)F)c2ccc(Cl)c(Cl)c2)CC1` (stereo not drawn) [Example 135, 4-[4-(Acetyl-methyl-amino)-piperidin-1-yl]-2-(3,4-dichloro-phenyl)-2-methyl-N-[2,2,2-trifluoro-1-(4-fluoro-phenyl)-ethyl]-butyramide]: 12.6 nM.
For the compound `CC(=O)N(C)C1CCN(CCC(C)(C(=O)N[C@@H](CO)c2ccc(Cl)cc2)c2ccc(Cl)c(Cl)c2)CC1` (stereo partly drawn) [Example 136, 4-[4-(Acetyl-methyl-amino)-piperidin-1-yl]-N-[1-(4-chloro-phenyl)-2-hydroxy-ethyl]-2-(3,4-dichloro-phenyl)-2-methyl-butyramide (diastereosisomer 1)], the inhibition constant Ki in assay [1] (setting [3]) and in assay [1] (setting [4]) was 9.6 nM in each case.
Regarding `CC(=O)N(C)C1CCN(CCC(C)(C(=O)N[C@H](CO)c2ccc(Cl)cc2)c2ccc(Cl)c(Cl)c2)CC1` (stereo partly drawn) [Example 137, 4-[4-(Acetyl-methyl-amino)-piperidin-1-yl]-N-[1-(4-chloro-phenyl)-2-hydroxy-ethyl]-2-(3,4-dichloro-phenyl)-2-methyl-butyramide (diastereosisomer 2)], in assay [1] (setting [3]), the Ki turned out to be 56 nM.
Take `COCCN(C(C)=O)C1CCN(CCC(C)(C(=O)N[C@@H](CO)c2ccc(Cl)c(Cl)c2)c2ccc(Cl)c(Cl)c2)CC1` (stereo partly drawn) [Example 148, 4-{4-[Acetyl-(2-methoxy-ethyl)-amino]-piperidin-1-yl}-2-(3,4-dichloro-phenyl)-N-[1-(3,4-dichloro-phenyl)-2-hydroxy-ethyl]-2-methyl-butyramide (diastreoisomer 1)]: the Ki in assay [1] (setting [3]) and in assay [1] (setting [4]) was 3.8 nM in each case.
`COCCN(C(C)=O)C1CCN(CCC(C)(C(=O)N[C@H](CO)c2ccc(Cl)c(Cl)c2)c2ccc(Cl)c(Cl)c2)CC1` (stereo partly drawn) [Example 149, 4-{4-[Acetyl-(2-methoxy-ethyl)-amino]-piperidin-1-yl}-2-(3,4-dichloro-phenyl)-N-[(S)-1-(3,4-dichloro-phenyl)-2-hydroxy-ethyl]-2-methyl-butyramide (diastreoisomer 2)]: the Ki in assay [1] (setting [3]) worked out at 19.4 nM.
As for `CC[C@H](NC(=O)C(C)(CCN1CCC(N(CCOC)C(C)=O)CC1)c1ccc(Cl)c(Cl)c1)c1ccccc1` (stereo partly drawn) [Example 152, 4-{4-[Acetyl-(2-methoxy-ethyl)-amino]-piperidin-1-yl}-2-(3,4-dichloro-phenyl)-2-methyl-N-((S)-1-phenyl-propyl)-butyramide], the inhibition constant (Ki) in assay [1] (setting [3]) and in assay [1] (setting [4]) was 1.1 nM each time.
For the compound `CC[C@@H](NC(=O)C(C)(CCN1CCC(N(CCOC)C(C)=O)CC1)c1ccc(Cl)c(Cl)c1)c1ccccc1` (stereo partly drawn) [Example 153, 4-{4-[Acetyl-(2-methoxy-ethyl)-amino]-piperidin-1-yl}-2-(3,4-dichloro-phenyl)-2-methyl-N-((R)-1-phenyl-propyl)-butyramide], in assay [1] (setting [3]), the Ki is 60.9 nM.
On the same count and under the same terms, next, `CC(=O)NC1CCN(CCC(C)(C(=O)N[C@@H](CO)c2ccc(F)cc2)c2ccc(Cl)c(Cl)c2)CC1` (stereo partly drawn) [Example 160, 4-(4-Acetylamino-piperidin-1-yl)-2-(3,4-dichloro-phenyl)-N-[(R)-1-(4-fluoro-phenyl)-2-hydroxy-ethyl]-2-methyl-butyramide]: 200 nM; `CC[C@H](NC(=O)C(C)(CCN1CCC(NC(C)=O)CC1)c1ccc(Cl)c(Cl)c1)c1ccccc1` (stereo partly drawn) [Example 161, 4-(4-Acetylamino-piperidin-1-yl)-2-(3,4-dichloro-phenyl)-2-methyl-N-((S)-1-phenyl-propyl)-butyramide]: 44.2 nM.
On to `CCCN(C(C)=O)C1CCN(CCC(C)(C(=O)N[C@@H](CC)c2ccccc2)c2ccc(Cl)c(Cl)c2)CC1` (stereo partly drawn) [Example 164, 4-[4-(Acetyl-propyl-amino)-piperidin-1-yl]-2-(3,4-dichloro-phenyl)-2-methyl-N-((S)-1-phenyl-propyl)-butyramide], for which the inhibitory constant (Ki) in assay [1] (setting [3]) and in assay [1] (setting [4]) was 0.8 nM throughout.
With `CCCN(C(C)=O)C1CCN(CCC(C)(C(=O)N[C@H](CC)c2ccccc2)c2ccc(Cl)c(Cl)c2)CC1` (stereo partly drawn) [Example 165, 4-[4-(Acetyl-propyl-amino)-piperidin-1-yl]-2-(3,4-dichloro-phenyl)-2-methyl-N-((R)-1-phenyl-propyl)-butyramide], in assay [1] (setting [3]), the inhibition constant Ki worked out at 14.5 nM.
Regarding `CC[C@H](NC(=O)C(C)(CCN1CCC(N(CC)C(C)=O)CC1)c1ccc(Cl)c(Cl)c1)c1ccccc1` (stereo partly drawn) [Example 168, 4-[4-(Acetyl-ethyl-amino)-piperidin-1-yl]-2-(3,4-dichloro-phenyl)-2-methyl-N-((S)-1-phenyl-propyl)-butyramide], the inhibitory constant (Ki) in assay [1] (setting [3]) and in assay [1] (setting [4]) was 3 nM throughout.
As for `CC[C@@H](NC(=O)C(C)(CCN1CCC(N(CC)C(C)=O)CC1)c1ccc(Cl)c(Cl)c1)c1ccccc1` (stereo partly drawn) [Example 169, 4-[4-(Acetyl-ethyl-amino)-piperidin-1-yl]-2-(3,4-dichloro-phenyl)-2-methyl-N-((R)-1-phenyl-propyl)-butyramide], the Ki in assay [1] (setting [3]) was found to be 57.6 nM.
For `CC(=O)N(C)C1(c2ccccc2)CCN(CCC[C@]2(c3ccc(Cl)c(Cl)c3)CCCN(C(=O)c3ccccc3)C2)CC1` [SR 142,801, Osanetant], the “activity on positive symptoms of schizophrenia” value in assay [2] (altered behaviour, delusion, hallucinations, extreme emotions, excited motor activity, incoherent speech) is “active on positive symptoms of schizophrenia”. For the same compound, the “activity on negative symptoms of schizophrenia” value in assay [2] (depression, anhedonia, social isolation, memory and attention deficits) is “inactive in the treatment of negative symptoms”.

(Values after patent US20110021565A1, “PIPERIDINE DERIVATIVES AS NK3 ANTAGONISTS” (priority 2007, published 2011).)
